Key:
patients = details: anesthetic induction doses; Bryson et al.; cited from earlier work
[1] = Population pharmacokinetic model (linear 5-compartment, NONMEM) of venous plasma concentrations; set-up: species or system human; details: population PK model; lean body weight covariate
[2] = Pharmacokinetic/pharmacodynamic models (probabilistic and continuous) for level of sedation (MOAA/S score); set-up: species or system human; details: subjects older than 65
[3] = Stella reports, cited from earlier work

Row | Compound | Patients with respiratory consequences, including a reduction in tidal volume and apnea (patients) | Increase of central volume of propofol generated from the prodrug [1] | Increase of central volume of the prodrug [1] | Increase of clearance of the prodrug [1] | Lowering of effect site concentration at which a given MOAA/S score is attained, versus younger subjects ([2]; continuous model) | Lowering of effect site concentration at which a given MOAA/S score is attained, versus younger subjects ([2]; probabilistic model) | Stability at pH levels suitable for making pharmaceutical formulations [3] | Breakdown in vivo under physiological conditions ([3]; administered intravenously)
1 | CC(C)c1cccc(C(C)C)c1O [propofol] | up to 83% |  |  |  |  |  |  | 
2 | CC(C)c1cccc(C(C)C)c1OCOP(=O)([O-])[O-].[Na+].[Na+] [propofol prodrug, O-phosphonooxymethyl propofol disodium salt] |  | 2.5 % per kg of LBW over 55 kg | 1.8 % per kg of LBW over 55 kg | 1.4 % per kg of LBW over 55 kg | about 25% | about 33% | good stability | quickly breaks down in vivo
